Experimental data: US10758534B2 (Vertex Pharmaceuticals Incorporated, priority 2014, dated 2020)

The molecules below were run against T1, F508del (Homo sapiens, UniProt P13569, DEL508-508) (assay: Protocol 1: membrane potential optical assay (FLIPR III, voltage sensing dye), identification of potentiator compounds). Details: Table 3, compounds of Table 1.
T1 construct: expressed in transfected cells
Type: cell-based
Procedure, shortened: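 Membrane potential in forskolin-activated, temperature-rescued F508del NIH 3T3 cells is followed with a voltage-sensing dye on FLIPR III. A chloride ion gradient created at the single addition step provides the driving force, after prior compound treatment.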

T1 sequence (P13569 with tags, fused parts or gaps DEL508-508): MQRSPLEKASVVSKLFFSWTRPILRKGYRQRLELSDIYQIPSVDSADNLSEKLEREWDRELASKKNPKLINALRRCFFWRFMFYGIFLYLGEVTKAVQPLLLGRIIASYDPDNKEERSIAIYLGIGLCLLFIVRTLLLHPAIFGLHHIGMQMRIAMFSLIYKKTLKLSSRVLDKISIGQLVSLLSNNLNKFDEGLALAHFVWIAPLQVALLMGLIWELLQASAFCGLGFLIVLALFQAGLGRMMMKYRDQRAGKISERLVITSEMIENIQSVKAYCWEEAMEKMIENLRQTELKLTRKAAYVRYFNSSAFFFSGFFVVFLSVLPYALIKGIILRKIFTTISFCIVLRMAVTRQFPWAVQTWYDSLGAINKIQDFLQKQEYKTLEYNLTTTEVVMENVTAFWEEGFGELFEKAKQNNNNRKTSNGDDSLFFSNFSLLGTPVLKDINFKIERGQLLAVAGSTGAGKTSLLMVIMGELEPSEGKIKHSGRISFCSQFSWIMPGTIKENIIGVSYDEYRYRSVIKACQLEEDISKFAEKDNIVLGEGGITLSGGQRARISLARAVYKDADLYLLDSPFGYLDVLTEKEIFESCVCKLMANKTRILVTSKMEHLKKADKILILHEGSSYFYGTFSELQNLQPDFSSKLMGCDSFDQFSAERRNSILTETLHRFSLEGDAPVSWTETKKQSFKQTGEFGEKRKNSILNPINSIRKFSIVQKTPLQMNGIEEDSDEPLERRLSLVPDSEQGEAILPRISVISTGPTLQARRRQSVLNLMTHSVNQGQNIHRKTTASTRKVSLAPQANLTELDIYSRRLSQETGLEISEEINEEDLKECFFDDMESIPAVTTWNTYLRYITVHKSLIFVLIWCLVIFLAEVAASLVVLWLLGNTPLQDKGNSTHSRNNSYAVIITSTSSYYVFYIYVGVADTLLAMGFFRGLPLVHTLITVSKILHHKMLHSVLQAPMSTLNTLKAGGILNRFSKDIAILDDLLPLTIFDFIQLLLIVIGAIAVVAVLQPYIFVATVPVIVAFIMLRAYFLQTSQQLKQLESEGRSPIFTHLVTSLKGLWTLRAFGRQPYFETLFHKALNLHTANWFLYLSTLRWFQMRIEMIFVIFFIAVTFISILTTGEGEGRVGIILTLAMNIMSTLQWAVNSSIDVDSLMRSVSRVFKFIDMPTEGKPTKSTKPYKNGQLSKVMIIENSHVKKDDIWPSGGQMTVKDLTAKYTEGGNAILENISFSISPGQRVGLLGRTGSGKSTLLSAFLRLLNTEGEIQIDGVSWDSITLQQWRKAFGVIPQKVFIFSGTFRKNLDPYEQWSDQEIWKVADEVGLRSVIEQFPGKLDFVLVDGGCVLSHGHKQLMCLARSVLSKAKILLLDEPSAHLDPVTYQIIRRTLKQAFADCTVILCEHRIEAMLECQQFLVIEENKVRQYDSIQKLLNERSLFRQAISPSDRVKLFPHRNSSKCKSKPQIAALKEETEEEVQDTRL

Row | Compound | EC30
1 | CCOc1ccccc1-c1ccc(C(=O)NS(=O)(=O)c2ccc[nH]c2=O)c(N2C[C@@H](C)CC2(C)C)n1 [Compound 1848, 6-(2-ethoxyphenyl)-N-[(2-oxo-1H-pyridin-3-yl)sulfonyl]-2-[(4S)-2,2,4-trimethylpyrrolidin-1-yl]pyridine-3-carboxamide] | +++ (“+++” means <3 uM)
2 | CC(C)Oc1ccc(-c2ccc(C(=O)NS(=O)(=O)c3cccc(N)n3)c(N3CCC[C@H]3C)n2)cn1 [Compound 1354, N-[(6-amino-2-pyridyl)sulfonyl]-6-(6-isopropoxy-3-pyridyl)-2-[(2R)-2-methylpyrrolidin-1-yl]pyridine-3-carboxamide] | +++ (“+++” means <3 uM)
3 | CC(C)COc1cc(F)cc(-c2ccc(C(=O)NS(=O)(=O)c3ccn[nH]3)c(N3CCC4(CC3)CC4)n2)c1 [Compound 1127, 2-(6-azaspiro[2.5]octan-6-yl)-6-(3-fluoro-5-isobutoxy-phenyl)-N-(1H-pyrazol-5-ylsulfonyl)pyridine-3-carboxamide] | +++ (“+++” means <3 uM)
4 | Cc1cc(OCC(C)C)nn1-c1ccc(C(=O)NS(=O)(=O)c2cccc(N)n2)c(N2C[C@@H](C)CC2(C)C)n1 [Compound 1407, N-[(6-amino-2-pyridyl)sulfonyl]-6-(3-isobutoxy-5-methyl-pyrazol-1-yl)-2-[(4S)-2,2,4-trimethylpyrrolidin-1-yl]pyridine-3-carboxamide] | +++ (“+++” means <3 uM)
5 | CC(C)COc1cc(-c2ccc(C(=O)NS(=O)(=O)c3cccc(N)n3)c(N3CC(C)CC3(C)C)n2)ccc1Cl (stereo not drawn) [Compound 1021, N-[(6-amino-2-pyridyl)sulfonyl]-6-(4-chloro-3-isobutoxy-phenyl)-2-(2,2,4-trimethylpyrrolidin-1-yl)pyridine-3-carboxamide] | +++ (“+++” means <3 uM)
6 | COc1ccccc1S(=O)(=O)NC(=O)c1cc(C(C)(C)C)nn1Cc1c(C)cccc1C [Compound 1551, 5-tert-butyl-2-[(2,6-dimethylphenyl)methyl]-N-(2-methoxyphenyl)sulfonyl-pyrazole-3-carboxamide] | +++ (“+++” means <3 uM)
7 | Cc1cccc(C)c1Cn1nc(-c2ccc(OC(C)C)cc2)cc1C(=O)NS(=O)(=O)c1ccccc1 [Compound 1478, N-(benzenesulfonyl)-2-[(2,6-dimethylphenyl)methyl]-5-(4-isopropoxyphenyl)pyrazole-3-carboxamide] | +++ (“+++” means <3 uM)
8 | Cc1cc(C)c(Oc2nc3c(cc2C(=O)NS(=O)(=O)c2ccc[nH]c2=O)CCC(C)(C)C3)c(C)c1 [Compound 1199, 7,7-dimethyl-N-[(2-oxo-1H-pyridin-3-yl)sulfonyl]-2-(2,4,6-trimethylphenoxy)-6,8-dihydro-5H-quinoline-3-carboxamide] | ++ (“++” means between 3 uM and 10 uM)
9 | Cc1cccc(C)c1Oc1nc(-c2cc(F)cc(OCC(C)(C)O)c2)ccc1C(=O)NS(=O)(=O)c1cccc(N)n1 [Compound 1890, N-[(6-amino-2-pyridyl)sulfonyl]-2-(2,6-dimethylphenoxy)-6-[3-fluoro-5-(2-hydroxy-2-methyl-propoxy)phenyl]pyridine-3-carboxamide] | ++ (“++” means between 3 uM and 10 uM)
10 | CC(C)COc1cc(F)cc(-c2ccc(C(=O)NS(=O)(=O)c3cccc(N)n3)c(OC3CC(F)(F)C3)n2)c1 [Compound 1458] | +++ (“+++” means <3 uM)
11 | Cc1cc(C)c(Oc2nc(C3(C)CC3)ccc2C(=O)NS(=O)(=O)c2cccc(N)n2)c(C)c1 [Compound 1310, N-[(6-amino-2-pyridyl)sulfonyl]-6-(1-methylcyclopropyl)-2-(2,4,6-trimethylphenoxy)pyridine-3-carboxamide] | +++ (“+++” means <3 uM)
12 | Cc1cc(C)c(Oc2cc(-c3cc(F)cc(OCC(C)C)c3)cnc2C(=O)NS(=O)(=O)c2cccc(N)n2)c(C)c1 [Compound 1456, N-[(6-amino-2-pyridyl)sulfonyl]-5-(3-fluoro-5-isobutoxy-phenyl)-3-(2,4,6-trimethylphenoxy)pyridine-2-carboxamide] | +++ (“+++” means <3 uM)
13 | CC(C)COc1cc(F)cc(-c2ccc(C(=O)NS(=O)(=O)c3ccn[nH]3)c(N3CCCC(C)C3C)n2)c1 (stereo not drawn) [Compound 1169, 2-(2,3-dimethyl-1-piperidyl)-6-(3-fluoro-5-isobutoxy-phenyl)-N-(1H-pyrazol-5-ylsulfonyl)pyridine-3-carboxamide] | ++ (“++” means between 3 uM and 10 uM)
14 | CC(C)COc1cc(F)cc(-c2ccc(C(=O)NS(=O)(=O)c3cccc(N)n3)c(N3CCCC4CCCC43)n2)c1 (stereo not drawn) [Compound 1313, 2-(2,3,4,4a,5,6,7,7a-octahydrocyclopenta[b]pyridin-1-yl)-N-[(6-amino-2-pyridyl)sulfonyl]-6-(3-fluoro-5-isobutoxy-phenyl)pyridine-3-carboxamide] | +++ (“+++” means <3 uM)
15 | CCCN(C)c1cccc(S(=O)(=O)NC(=O)c2cccnc2N2CC(C)CC2(C)C)n1 (stereo not drawn) [Compound 1711, N—[[6-[methyl(propyl)amino]-2-pyridyl]sulfonyl]-2-(2,2,4-trimethylpyrrolidin-1-yl)pyridine-3-carboxamide] | +++ (“+++” means <3 uM)
16 | CC(C)CNc1ccc(-c2ccc(C(=O)NS(=O)(=O)c3cccc(N)n3)c(N3[C@H](C)CC[C@@H]3C)n2)cn1 [Compound 1398, N-[(6-amino-2-pyridyl)sulfonyl]-2-[(2S,5R)-2,5-dimethylpyrrolidin-1-yl]-6-[6-(isobutylamino)-3-pyridyl]pyridine-3-carboxamide] | ++ (“++” means between 3 uM and 10 uM)
17 | CC(C)COc1cc(F)cc(-c2ccc(C(=O)NS(=O)(=O)N3CCCC(C)(N)C3)c(N3CC(C)CC3(C)C)n2)c1 (stereo not drawn) [Compound 1445, N-[(3-amino-3-methyl-1-piperidyl)sulfonyl]-6-(3-fluoro-5-isobutoxy-phenyl)-2-(2,2,4-trimethylpyrrolidin-1-yl)pyridine-3-carboxamide] | +++ (“+++” means <3 uM)
18 | Cc1ccc(CNc2cccc(S(=O)(=O)NC(=O)c3cccnc3N3CC(C)CC3(C)C)n2)cc1 (stereo not drawn) [Compound 1892, N—[[6-(p-tolylmethylamino)-2-pyridyl]sulfonyl]-2-(2,2,4-trimethylpyrrolidin-1-yl)pyridine-3-carboxamide] | +++ (“+++” means <3 uM)
19 | Cc1cc(C)c(Oc2nc(C3(C)CC3)ccc2C(=O)NS(=O)(=O)c2cccc(N)c2)c(C)c1 [Compound 826, N-(3-aminophenyl)sulfonyl-6-(1-methylcyclopropyl)-2-(2,4,6-trimethylphenoxy)pyridine-3-carboxamide] | +++ (“+++” means <3 uM)
20 | COc1cc(F)cc(-c2ccc(C(=O)NS(=O)(=O)c3cccnc3N)c(N3C[C@@H](C)CC3(C)C)n2)c1 [Compound 1869, N-[(2-amino-3-pyridyl)sulfonyl]-6-(3-fluoro-5-methoxy-phenyl)-2-[(4S)-2,2,4-trimethylpyrrolidin-1-yl]pyridine-3-carboxamide] | +++ (“+++” means <3 uM)
21 | CC(C)COc1cc(F)cc(-c2ccc(C(=O)NS(=O)(=O)N3CC[C@H](N)C3)c(N3C[C@@H](C)CC3(C)C)n2)c1 [Compound 1557, N-[(3S)-3-aminopyrrolidin-1-yl]sulfonyl-6-(3-fluoro-5-isobutoxy-phenyl)-2-[(4S)-2,2,4-trimethylpyrrolidin-1-yl]pyridine-3-carboxamide] | +++ (“+++” means <3 uM)
